From patent US20260232767A1, “INTERLEUKIN-23 RECEPTOR ANTAGONIST PEPTIDES FOR USE IN THE TREATMENT OF PSORIASIS” (Janssen Pharmaceutica NV, priority 2023, published 2026)

Tested on: subjects with moderate-to-severe plaque psoriasis
Assay: PASI response, Example 2 long-term extension to Week 52
Assay type: in vivo, human
Excerpt: Described below is a multicenter, long-term extension (LTE), double-blind, dose-ranging, parallel group interventional study in participants from Example 1 to evaluate the long-term efficacy and safety of the hydrochloride salt of the compound of Formula (I) for the treatment of moderate-to-severe plaque psoriasis. Patients from Example 1 continued to receive the same dose of the compound of Formula (I) for an additional 36-week treatment period with a 4-week safety follow up period after the last administration of the compound of Formula (I). Patients randomized to placebo in Example 1 received the compound of Formula (I) at a dose of 100 mg QD starting at Week 16 of Example 1 (FIG. 21).
The primary efficacy endpoint is the proportion of participants achieving a PASI 75 response at Week 52, defined as at least a […] reduction from baseline PASI of Example 1. For primary analysis, composite strategy (non-responder imputation) was applied to address intercurrent event #1 (Discontinuation of study intervention due to lack of efficacy or due to an AE of worsening of psoriasis) and […] (initiation of a protocol-prohibited medication or therapy that could improve psoriasis); treatment policy strategy (observed data) was applied to intercurrent event #3 (Discontinuation of study intervention due to other reasons). Participants with missing data after application of ICEs are considered as non-responders.
Since there was no control arm (after week 16), in this primary analysis, only the proportion of participants who achieved a PASI75 response and its […] confidence interval at Week 52 were summarized for each intervention group.

[1] = Week 20, Placebo → 100 mg QD, N=35
[2] = Week 24, Placebo → 100 mg QD, N=35
[3] = Week 28, Placebo → 100 mg QD, N=35
[4] = Week 32, Placebo → 100 mg QD, N=35
[5] = Week 40, Placebo → 100 mg QD, N=35
[6] = Week 52, Placebo → 100 mg QD, N=35

SMILES: CC(=O)NCCCC[C@@H]1NC(=O)[C@H](Cc2c[nH]c3c(C)cccc23)NC(=O)[C@H]([C@@H](C)O)NC(=O)[C@H](CC(N)=O)NC(=O)[C@@H](NC(C)=O)C(C)(C)SSC(C)(C)[C@@H](C(=O)N[C@@H](Cc2ccc(OCCN)cc2)C(=O)N[C@@H](Cc2ccc3ccccc3c2)C(=O)NC2(C(=O)N[C@@H](CCC(=O)O)C(=O)N[C@@H](CC(N)=O)C(=O)N[C@@H](Cc3cccnc3)C(=O)N(C)CC(N)=O)CCOCC2)NC1=O [IL-23 receptor antagonist peptide, Ac-[Pen]*-N-T-[W(7-Me)]-[Lys(Ac)]-[Pen]*-Phe[4-(2-aminoethoxy)]-[2-Nal]-[THP]-E-N-[3-Pal]-Sarc-NH2 (*[Pen]-[Pen]* formdisulfidebond)]
- PASI ≥90% Improvement, subjects (%) (Week 20, 100 mg BID, N=42): (61.9%)
- PASI 100% Improvement, subjects (%) (Week 20, 100 mg QD, N=43): (14.0%)
- PASI ≥75% Improvement, subjects (%) (Week 20, 100 mg QD, N=43): (60.5%)
- PASI ≥90% Improvement, subjects (%) (Week 20, 100 mg QD, N=43): (44.2%)
- PASI 100% Improvement, subjects (%) [1]: (2.9%)
- PASI ≥75% Improvement, subjects (%) [1]: (40.0%)
- PASI ≥90% Improvement, subjects (%) [1]: (14.3%)
- PASI 100% Improvement, subjects (%) (Week 24, 25 mg BID, N=41): (19.5%)
- PASI ≥75% Improvement, subjects (%) (Week 24, 25 mg BID, N=41): (61.0%)
- PASI ≥90% Improvement, subjects (%) (Week 24, 25 mg BID, N=41): (29.3%)
- PASI 100% Improvement, subjects (%) (Week 24, 25 mg QD, N=43): (16.3%)
- PASI ≥75% Improvement, subjects (%) (Week 24, 25 mg QD, N=43): (46.5%)
- PASI ≥90% Improvement, subjects (%) (Week 24, 25 mg QD, N=43): (32.6%)
- PASI 100% Improvement, subjects (%) (Week 24, 50 mg QD, N=43): (27.9%)
- PASI ≥75% Improvement, subjects (%) (Week 24, 50 mg QD, N=43): (60.5%)
- PASI ≥90% Improvement, subjects (%) (Week 24, 50 mg QD, N=43): (53.5%)
- PASI 100% Improvement, subjects (%) (Week 24, 100 mg BID, N=42): (35.7%)
- PASI ≥75% Improvement, subjects (%) (Week 24, 100 mg BID, N=42): (81.0%)
- PASI ≥90% Improvement, subjects (%) (Week 24, 100 mg BID, N=42): (69.0%)
- PASI 100% Improvement, subjects (%) (Week 24, 100 mg QD, N=43): (20.9%)
- PASI ≥75% Improvement, subjects (%) (Week 24, 100 mg QD, N=43): (69.8%)
- PASI ≥90% Improvement, subjects (%) (Week 24, 100 mg QD, N=43): (55.8%)
- PASI 100% Improvement, subjects (%) [2]: (8.6%)
- PASI ≥75% Improvement, subjects (%) [2]: (60.0%)
- PASI ≥90% Improvement, subjects (%) [2]: (22.9%)
- PASI 100% Improvement, subjects (%) (Week 28, 25 mg BID, N=41): (17.1%)
- PASI ≥75% Improvement, subjects (%) (Week 28, 25 mg BID, N=41): (61.0%)
- PASI ≥90% Improvement, subjects (%) (Week 28, 25 mg BID, N=41): (36.6%)
- PASI 100% Improvement, subjects (%) (Week 28, 25 mg QD, N=43): (18.6%)
- PASI ≥75% Improvement, subjects (%) (Week 28, 25 mg QD, N=43): (39.5%)
- PASI ≥90% Improvement, subjects (%) (Week 28, 25 mg QD, N=43): (27.9%)
- PASI 100% Improvement, subjects (%) (Week 28, 50 mg QD, N=43): (14.0%)
- PASI ≥75% Improvement, subjects (%) (Week 28, 50 mg QD, N=43): (69.8%)
- PASI ≥90% Improvement, subjects (%) (Week 28, 50 mg QD, N=43): (48.8%)
- PASI 100% Improvement, subjects (%) (Week 28, 100 mg BID, N=42): (38.1%)
- PASI ≥75% Improvement, subjects (%) (Week 28, 100 mg BID, N=42): (78.6%)
- PASI ≥90% Improvement, subjects (%) (Week 28, 100 mg BID, N=42): (61.9%)
- PASI 100% Improvement, subjects (%) (Week 28, 100 mg QD, N=43): (25.6%)
- PASI ≥75% Improvement, subjects (%) (Week 28, 100 mg QD, N=43): (65.1%)
- PASI ≥90% Improvement, subjects (%) (Week 28, 100 mg QD, N=43): (51.2%)
- PASI 100% Improvement, subjects (%) [3]: (14.3%)
- PASI ≥75% Improvement, subjects (%) [3]: (62.9%)
- PASI ≥90% Improvement, subjects (%) [3]: (22.9%)
- PASI 100% Improvement, subjects (%) (Week 32, 25 mg BID, N=41): (17.1%)
- PASI ≥75% Improvement, subjects (%) (Week 32, 25 mg BID, N=41): (53.7%)
- PASI ≥90% Improvement, subjects (%) (Week 32, 25 mg BID, N=41): (39.0%)
- PASI 100% Improvement, subjects (%) (Week 32, 25 mg QD, N=43): (18.6%)
- PASI ≥75% Improvement, subjects (%) (Week 32, 25 mg QD, N=43): (48.8%)
- PASI ≥90% Improvement, subjects (%) (Week 32, 25 mg QD, N=43): (30.2%)
- PASI 100% Improvement, subjects (%) (Week 32, 50 mg QD, N=43): (25.6%)
- PASI ≥75% Improvement, subjects (%) (Week 32, 50 mg QD, N=43): (65.1%)
- PASI ≥90% Improvement, subjects (%) (Week 32, 50 mg QD, N=43): (51.2%)
- PASI 100% Improvement, subjects (%) (Week 32, 100 mg BID, N=42): (33.3%)
- PASI ≥75% Improvement, subjects (%) (Week 32, 100 mg BID, N=42): (78.6%)
- PASI ≥90% Improvement, subjects (%) (Week 32, 100 mg BID, N=42): (66.7%)
- PASI 100% Improvement, subjects (%) (Week 32, 100 mg QD, N=43): (25.6%)
- PASI ≥75% Improvement, subjects (%) (Week 32, 100 mg QD, N=43): (69.8%)
- PASI ≥90% Improvement, subjects (%) (Week 32, 100 mg QD, N=43): (62.8%)
- PASI 100% Improvement, subjects (%) [4]: (20.0%)
- PASI ≥75% Improvement, subjects (%) [4]: (65.7%)
- PASI ≥90% Improvement, subjects (%) [4]: (40.0%)
- PASI 100% Improvement, subjects (%) (Week 40, 25 mg BID, N=41): (14.6%)
- PASI ≥75% Improvement, subjects (%) (Week 40, 25 mg BID, N=41): (53.7%)
- PASI ≥90% Improvement, subjects (%) (Week 40, 25 mg BID, N=41): (31.7%)
- PASI 100% Improvement, subjects (%) (Week 40, 25 mg QD, N=43): (11.6%)
- PASI ≥75% Improvement, subjects (%) (Week 40, 25 mg QD, N=43): (48.8%)
- PASI ≥90% Improvement, subjects (%) (Week 40, 25 mg QD, N=43): (32.6%)
- PASI 100% Improvement, subjects (%) (Week 40, 50 mg QD, N=43): (20.9%)
- PASI ≥75% Improvement, subjects (%) (Week 40, 50 mg QD, N=43): (67.4%)
- PASI ≥90% Improvement, subjects (%) (Week 40, 50 mg QD, N=43): (46.5%)
- PASI 100% Improvement, subjects (%) (Week 40, 100 mg BID, N=42): (35.7%)
- PASI ≥75% Improvement, subjects (%) (Week 40, 100 mg BID, N=42): (78.6%)
- PASI ≥90% Improvement, subjects (%) (Week 40, 100 mg BID, N=42): (64.3%)
- PASI 100% Improvement, subjects (%) (Week 40, 100 mg QD, N=43): (25.6%)
- PASI ≥75% Improvement, subjects (%) (Week 40, 100 mg QD, N=43): (69.8%)
- PASI ≥90% Improvement, subjects (%) (Week 40, 100 mg QD, N=43): (55.8%)
- PASI 100% Improvement, subjects (%) [5]: (28.6%)
- PASI ≥75% Improvement, subjects (%) [5]: (60.0%)
- PASI ≥90% Improvement, subjects (%) [5]: (45.7%)
- PASI 100% Improvement, subjects (%) (Week 52, 25 mg BID, N=41): (17.1%)
- PASI ≥75% Improvement, subjects (%) (Week 52, 25 mg BID, N=41): (58.5%)
- PASI ≥90% Improvement, subjects (%) (Week 52, 25 mg BID, N=41): (36.6%)
- PASI 100% Improvement, subjects (%) (Week 52, 25 mg QD, N=43): (14.0%)
- PASI ≥75% Improvement, subjects (%) (Week 52, 25 mg QD, N=43): (48.8%)
- PASI ≥90% Improvement, subjects (%) (Week 52, 25 mg QD, N=43): (27.9%)
- PASI 100% Improvement, subjects (%) (Week 52, 50 mg QD, N=43): (20.9%)
- PASI ≥75% Improvement, subjects (%) (Week 52, 50 mg QD, N=43): (69.8%)
- PASI ≥90% Improvement, subjects (%) (Week 52, 50 mg QD, N=43): (41.9%)
- PASI 100% Improvement, subjects (%) (Week 52, 100 mg BID, N=42): (40.5%)
- PASI ≥75% Improvement, subjects (%) (Week 52, 100 mg BID, N=42): (76.2%)
- PASI 100% Improvement, subjects (%) (Week 52, 100 mg QD, N=43): (25.6%)
- PASI ≥75% Improvement, subjects (%) (Week 52, 100 mg QD, N=43): (65.1%)
- PASI ≥90% Improvement, subjects (%) (Week 52, 100 mg QD, N=43): (51.2%)
- PASI 100% Improvement, subjects (%) [6]: (34.3%)
- PASI ≥75% Improvement, subjects (%) [6]: (65.7%)
- PASI ≥90% Improvement, subjects (%) [6]: (57.1%)
- PASI and IGA response rates (from Week 16 to Week 52): generally maintained
